Entries after “also recorded” stand apart in the source; their conditions may differ.
Experiments:
[1] = test system: STING pathway in PPM tumors; experiment: STING pathway activation in PPM tumors; conditions: mouse, in vivo
Protocol: Tumors were first mechanically disrupted by chopping, then chemically digested in collagenase buffer (8 mL DMEM, 0.1 mL 1M HEPES, 0.5 mL FBS, 0.2 mL Pen/Strep, 1 m, 10× collagenase/hyaluronidase (Stemcell Technologies), 0.2 mL of 1 mg/mL DNase I (Stemcell Technologies) at 37° C. for 45 min. Single-cell suspensions of spleen and lymph nodes were obtained by mashed through a 70 um strainer using the plunger of a 3 mL or 5 mL syringe. Single cells suspensions were treated with red blood lysis buffer (4 mL NH4Cl+1 mL PBS with 2% calf serum) and washed with FACS buffer. Single cells suspensions were incubated with LIVE/DEAD Fixable Aqua Dead Cell Stain (Life Technologies, Cat # L34965) for 30 min and then blocked with anti-CD16/32 (BioLegend, clone 93) for 20 min on ice. Samples were then incubated with appropriate antibodies for 30 min. on ice. The Foxp3 staining buffer set (eBioscience, Cat #00-5523-00) was applied for intracellular markers staining. For the intracellular cytokine analysis, cells were stimulated with Leukocyte Activation Cocktail (BD Biosciences, Cat #550583) at 37° C. for 5 hours prior to FACS staining. […] Flow cytometry was performed on an LSR II (BD Biosciences) or LSRFortessa™ HTS (BD Biosciences) at the DFCI flow cytometry core facility, and all the data were analyzed using FlowJo software. […]

[2] = test system: STING pathway in PBM tumors; experiment: STING pathway activation in PBM tumors (p-TBK1/p-IRF3 flow cytometry, IFN-β/CXCL10 RT-qPCR); format: in vivo, mouse; conditions: for phosphorylation of TBK1 and IRF3 in intratumoral DCs and macrophages: PBM tumors
Protocol: Tumors were first mechanically disrupted by chopping, then chemically digested in collagenase buffer (8 mL DMEM, 0.1 mL 1M HEPES, 0.5 mL FBS, 0.2 mL Pen/Strep, 1 m, 10× collagenase/hyaluronidase (Stemcell Technologies), 0.2 mL of 1 mg/mL DNase I (Stemcell Technologies) at 37° C. for 45 min. Single-cell suspensions of spleen and lymph nodes were obtained by mashed through a 70 um strainer using the plunger of a 3 mL or 5 mL syringe. Single cells suspensions were treated with red blood lysis buffer (4 mL NH4Cl+1 mL PBS with 2% calf serum) and washed with FACS buffer. Single cells suspensions were incubated with LIVE/DEAD Fixable Aqua Dead Cell Stain (Life Technologies, Cat # L34965) for 30 min and then blocked with anti-CD16/32 (BioLegend, clone 93) for 20 min on ice. Samples were then incubated with appropriate antibodies for 30 min. on ice. The Foxp3 staining buffer set (eBioscience, Cat #00-5523-00) was applied for intracellular markers staining. For the intracellular cytokine analysis, cells were stimulated with Leukocyte Activation Cocktail (BD Biosciences, Cat #550583) at 37° C. for 5 hours prior to FACS staining. The following antibodies were used in the experiments and were purchased from BioLegend unless otherwise indicated: CD45 (clone 30-F11), TCRβ (clone H57-597), CD4 (clone RM4-5), CD8 (clone 53-6.7), CD44 (clone IM7), CD62L (MEL-14), CD25 (PC61), IFNγ (clone XMG1.2), TNFα(clone MP6-XT22), PD-1 (clone 29F.1A12), Tim-3 (clone RMT3-23), LAG-3 (clone C9B7W), CD11b (clone M1/70), CD11c (clone […]), F4/80 (clone BM8), Gr-1 (clone RB6-BC5), Ly-6C (clone HK1.4), Ly-6G (clone 1A8), MHCII (clone M5/114.15.2), CD80 (clone 16-10A1), CD86 (clone GL-1), MHC1 (clone KH114). […] Flow cytometry was performed on an LSR II (BD Biosciences) or LSRFortessa™ HTS (BD Biosciences) at the DFCI flow cytometry core facility, and all the data were analyzed using FlowJo software. […]

PBM tumor-bearing mice = experiment: Cytokine array of plasma/sera; format: in vivo, mouse; conditions: day 2 of treatment
Protocol: Blood was obtained by retro-orbital sampling at intermediate time points or experimental end points. Blood cells and plasma/sera were separated by centrifugation at 1,500×g for 5 min. at 4° C. Plasmaisera were sent out to Eve Technologies for cytokine array analysis (Chemokine Array 31-Plex and Mouse Procarta IFN 2-plex Featured Assay). Plasma/sera were applied to ELISA according to manufacturer's instructions. For in vitro experiments, cell culture supernatants were obtained by centrifugation at 1,500×g for 5 min. at 4° C. to remove all debris and cells, and were then subjected to ELISA analysis. IFN-β was detected using the LEGEND MAX™ Mouse IFN-β ELISA Kit (BioLegend).

## O=C(c1cc(Cc2n[nH]c(=O)c3ccccc23)ccc1F)N1CCN(C(=O)C2CC2)CC1 [olaparib, Olaparib]
[1]
  hallmarks of STING pathway activation in PPM tumors: not observed
[2]
  phosphorylation of TBK1 and IRF3 in intratumoral DCs and macrophages: increased pTBK1+p-IRF3+
[2]; listed as Olaparib
  phosphorylation of TBK1 and IRF3 in intratumoral DCs and macrophages: increased phosphorylation
[2]; RT-qPCR
  IFN-β and CXCL10 expression in PBM tumor tissues: induction; also recorded: Increased expression
PBM tumor-bearing mice
  plasma/sera cytokine levels (CXCL9, CXCL10, IFNβ and others): significant increase; also recorded: increased levels of multiple cytokines
PBM tumor-bearing mice; listed as Olaparib
  plasma/sera cytokine levels (CXCL9, CXCL10, IFNβ and others): changes on the levels of various cytokines
